Data taken from EP0950398A2, “Use of esters as dispersants or solvents in sunscreens and solar protection pigments” (Henkel Kommanditgesellschaft auf Aktien, priority 1998, dated 1999).

Experiment: UV absorption of 5 ppm Octylmethoxy Cinnamate dissolved in different oil bodies (absorption increase)
Format: physicochemical
Conditions: for Absorptionssteigerung: 5 ppm Octylmethoxy Cinnamate in the oil body, 1-cm cuvette, 308 nm, absorption in Mineralöl taken as 100 %
From the text: Zur Bestimmung der Absorptionssteigerung wurden Lösungen von 5 ppm Octylmethoxy Cinnamate in verschiedenen Ölkörpern hergestellt und die UV-Absorption in einer 1-cm Küvette bei einer Wellenlänge von 308 nm bestimmt. Die Absorption in Mineralöl wurde dazu als 100 % angenommen und alle übrigen Absorptionen dazu ins Verhältnis gesetzt. Des weiteren wurden verschiedene UV-Filter (OT = Octyl Triazone; BMDBM = Butyl Methoxydibenzoylmethane; B3 = Benzophenone-3 und 4MBC = 4-Methylbenzyliden Camphor) in den Ölkörpern in der Wärme gelöst und die Löslichkeit bei 15°C bestimmt. Die Ergebnisse sind in Tabelle 1 zusammengefaßt. Tabelle 1

SMILES	Absorptionssteigerung	UV-Absorption unterstützt (result in words, comparison of all tested oil bodies)
CCCCOC(=O)CCCCC(=O)OCCCC [Dibutyl Adipate]	117%	am stärksten
CCCCCCCCOCCCCCCCC [Dicaprylyl Ether, reference compound]	105%	–
